Experiments:
RENCA cells = settings: cited from earlier work
human PBEF [1] = assay: In vitro PBEF silencing with siRNAs; format: cell-based
From the text: In vitro human PBEF stealth siRNAs were designed based on the human PBEF cDNA reference sequence (NM_005746.1) using the BLOCK-iTi RNAi Designer (Invitrogen, Carlsbad, Calif.). The siRNA sequence 1 (as reported in Ye et al. 2005 MVR w/@75% silencing) was custom synthesized from Invitrogen (cat#10620312_40993403, NM_005746); (5′-[…]-3′ SEQ ID NO:4) and scrambled controls (cat#10620312_40993404).
Alternatively, small interfering RNA (siRNA) targeting human PBEF1 (NM_005746) was purchased as 4 ON-TARGETplus SMARTpool siRNA duplexes (catalog#L-004581-00) from Dharmacon (Lafayette, Colo.).

human PBEF [2] = settings: as reported in Ye et al. 2005; cited from earlier work
[3] = tested on: rat peritoneal neutrophils; assay: Transmigration and chemotaxis assay (Transwell); format: cell-based; settings: rhPBEF (10 ng/ul) or casein in lower chamber, up to 4 hours
Description: Chemotaxis of rat peritoneal neutrophils (calcein-AM) across 3 μm polycarbonate filters was assessed in response to recombinant human PBEF/visfatin (rhPBEF, PeproTech, Rocky Hill, N.J.), or casein (positive control). (See Supplemental Methods for additional details).
Neutrophils were collected from retired breeder male Harlan-Sprague Dawley rats by intraperitoneal injection of 2.5% casein (5 ml). The resulting peritoneal fluid was recovered by PBS peritoneal lavage after 18 hr, centrifuged and examined for total cell counts and cell differentiation. For chemotaxis assays, leukocytes were exposed to calcein-AM in the presence of plurionic acid for 1 hr at room temperature. The temperature was then elevated to 37° C. for 30 min to cleave the calcein AM thereby reducing the rate of calcein diffusion out of the cells. […] The receiving wells were assessed serially in a fluorescent plate reader with absorption at 494 nm and emission measured at 517 nm. Fluorescence was recorded at 5, 10, 15, 30 min and each subsequent 30 min period for up to 4 hr. Aliquots of known numbers of neutrophils were counted in separate wells at each time point to account for any quenching of the fluorescence over time.

## O=C(/C=C/c1cccnc1)NCCCCC1CCN(C(=O)c2ccccc2)CC1 [FK-866]
RENCA cells; doses of up to 6 mg/kg FK-866, TNP 470 30 mg/kg subcutaneously every other day
  toxicity compared with TNP-470 treatment: less toxic than treatment with TNP-470
RENCA cells; oral, twice daily, days 14 to 19 after tumor cell inoculation
  doses with significant antitumor efficacy: ≥ 10 mg/kg

## Invitrogen siRNA: human PBEF stealth siRNA, single sequence, custom synthesized from Invitrogen; 5′-CCACCCAACACAAGCAAAGUUUAUU-3′ SEQ ID NO:4 (Stealth siRNA from Invitrogen, modification pattern not given here)
Human PBEF [1]
  downregulating PBEF protein expression: effective
Human PBEF [2]
  PBEF silencing: 75%

## casein [reference compound]
[3]
  PMN migration across Transwell filters: significant at all time points beginning at 30 minutes
